Assay results taken from US20230097866A1, “BACTERIAL TOPOISOMERASE INHIBITORS DERIVED FROM ISOMANNIDE” (Ohio State Innovation Foundation, priority 2020, published 2023).
Where two headings read alike, the source gives them in different places.

What was measured:
[1] = molecular target: T1, Nav 1.5 Human Sodium Ion Channel (Homo sapiens, UniProt Q14524); assay: Nav 1.5 QPatch CiPA assay; format: cell-based; conditions: mean, duplicate
T1 construct: expressed in transfected cells
Source text: (§1) Early drug discovery programs commonly assess hERG inhibition as the only indicator of potential cardiovascular safety concerns. Researchers have recently recommended a more rigorous evaluation of multiple cardiac ion channels to provide a more comprehensive cardiovascular risk assessment (Fermini, B., et al., A New Perspective in the Field of Cardiac Safety Testing through the Comprehensive In Vitro Proarrhythmia Assay Paradigm. J. Biomolec. Screening 2016, 21, 1-11). Given the promising initial results for 6, further evaluation was undertaken (in duplicate) in a Comprehensive in vitro Proarrhythmia Assay (CiPA) eight assay panel run on the QPatch HT (Sophion, Denmark) automated patch clamp system at three concentrations (3, 30, and 100 μM). All data were filtered for seal quality, seal drop, and current amplitude. A stock solution of the test compound at 30 mM concentration was prepared in DMSO.
The parameters measured were the maximum inward current evoked on stepping to −15 mV from the test pulse. The peak current amplitude was calculated before and after compound addition and the amount of block was assessed by dividing the Test compound current amplitude by the Control current amplitude. Control is the mean hNav1.5 current amplitude collected 15 seconds at the end of the control; Test Compound is the mean hNav1.5 current amplitude collected in the presence of test compound at each concentration. The positive control compound was tetracaine.

[2] = molecular target: T2, Nav1.5 Late Current Human Ion Channel (Homo sapiens, UniProt Q14524); format: cell-based; conditions: in presence of 30 nM ATXII
T2 construct: expressed in transfected cells
Source text: as §1
The parameters measured were the maximum inward current (charge) evoked on stepping to −15mV from the test pulse in the presence of 30 nM ATXII. The peak and ramp current (charge) amplitude was calculated before and after compound addition and the amount of current (charge) was assessed by dividing the Test compound current (charge) by the Control current (charge). Control is the mean hNav1.5 late current (charge) collected 15 seconds at the end of the control (30 nM ATXII); Test Compound is the mean hNav1.5 current (charge) collected in the presence of test compound and 30 nM ATXII at each concentration. The positive control was ranolizine.

[3] = in vitro; format: in vitro ADME; conditions: pH 7.4, 10 μM, equilibrium dialysis
Experimental: In this assay an equilibrium dialysis technique was used to separate unbound test compound from compound bound to proteins. The plasma was spiked with the test compound at 10 μM with a final DMSO concentration of 1%. The dialysate compartment was loaded with phosphate buffered saline (PBS, pH 7.4) and the sample side was loaded with equal volume of the spiked plasma, After incubation at 37° C. for 4 hours, samples were removed from each plasma and buffer chamber; plasma protein was removed by treatment with acetonitrile. Recovered samples were analyzed using LC-MS.

T1 sequence (Q14524 whole entry): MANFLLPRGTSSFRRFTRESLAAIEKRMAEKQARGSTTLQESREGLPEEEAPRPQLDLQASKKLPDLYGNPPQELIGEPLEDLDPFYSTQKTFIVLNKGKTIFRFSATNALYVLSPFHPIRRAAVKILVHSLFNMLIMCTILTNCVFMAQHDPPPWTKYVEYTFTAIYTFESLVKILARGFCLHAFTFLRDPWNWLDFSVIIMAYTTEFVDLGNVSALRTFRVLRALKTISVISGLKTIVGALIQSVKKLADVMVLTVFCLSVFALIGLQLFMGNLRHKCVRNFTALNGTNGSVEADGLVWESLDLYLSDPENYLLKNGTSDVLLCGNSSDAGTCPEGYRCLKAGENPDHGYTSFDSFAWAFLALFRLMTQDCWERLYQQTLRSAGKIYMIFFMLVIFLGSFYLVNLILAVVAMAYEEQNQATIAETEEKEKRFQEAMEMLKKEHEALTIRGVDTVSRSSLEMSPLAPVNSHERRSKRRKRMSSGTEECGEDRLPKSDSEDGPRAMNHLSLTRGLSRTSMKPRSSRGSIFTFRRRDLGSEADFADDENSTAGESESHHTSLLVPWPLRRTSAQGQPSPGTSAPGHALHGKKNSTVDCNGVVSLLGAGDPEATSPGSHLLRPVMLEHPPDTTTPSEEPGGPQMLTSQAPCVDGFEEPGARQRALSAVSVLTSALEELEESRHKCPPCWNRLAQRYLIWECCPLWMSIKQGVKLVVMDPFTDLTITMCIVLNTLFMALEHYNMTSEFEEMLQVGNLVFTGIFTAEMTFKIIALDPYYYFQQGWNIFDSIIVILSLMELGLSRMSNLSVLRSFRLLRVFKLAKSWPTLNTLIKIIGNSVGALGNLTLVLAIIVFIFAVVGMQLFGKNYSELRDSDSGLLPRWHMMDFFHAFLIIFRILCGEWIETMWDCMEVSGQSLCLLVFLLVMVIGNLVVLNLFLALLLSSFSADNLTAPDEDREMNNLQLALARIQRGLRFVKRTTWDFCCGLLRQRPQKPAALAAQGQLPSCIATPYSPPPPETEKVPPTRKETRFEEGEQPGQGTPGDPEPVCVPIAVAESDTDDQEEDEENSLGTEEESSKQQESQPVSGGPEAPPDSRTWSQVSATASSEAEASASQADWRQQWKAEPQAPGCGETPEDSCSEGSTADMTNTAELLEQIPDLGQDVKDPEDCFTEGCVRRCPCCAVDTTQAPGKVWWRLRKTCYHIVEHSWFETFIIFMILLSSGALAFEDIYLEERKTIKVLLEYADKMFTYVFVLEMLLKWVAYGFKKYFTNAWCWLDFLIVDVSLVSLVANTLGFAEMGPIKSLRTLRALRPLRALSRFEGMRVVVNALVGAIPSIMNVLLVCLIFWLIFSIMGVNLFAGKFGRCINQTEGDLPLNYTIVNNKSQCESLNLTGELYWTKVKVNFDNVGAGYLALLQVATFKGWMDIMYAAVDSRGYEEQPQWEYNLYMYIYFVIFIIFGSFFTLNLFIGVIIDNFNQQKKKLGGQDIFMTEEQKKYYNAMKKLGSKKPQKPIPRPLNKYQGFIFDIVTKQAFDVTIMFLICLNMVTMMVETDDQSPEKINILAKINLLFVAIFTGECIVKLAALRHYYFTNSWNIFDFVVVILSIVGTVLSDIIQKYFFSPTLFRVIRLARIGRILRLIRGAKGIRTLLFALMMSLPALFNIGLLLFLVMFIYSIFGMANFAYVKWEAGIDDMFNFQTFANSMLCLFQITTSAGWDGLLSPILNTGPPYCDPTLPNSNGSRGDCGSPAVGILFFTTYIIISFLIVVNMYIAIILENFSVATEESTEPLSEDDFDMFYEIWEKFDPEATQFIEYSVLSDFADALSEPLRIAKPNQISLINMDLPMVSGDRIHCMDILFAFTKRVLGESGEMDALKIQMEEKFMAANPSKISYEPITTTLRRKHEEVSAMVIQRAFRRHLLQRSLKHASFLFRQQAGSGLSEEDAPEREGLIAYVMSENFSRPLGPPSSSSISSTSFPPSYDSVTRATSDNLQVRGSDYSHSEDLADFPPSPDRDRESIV
T2 sequence (Q14524 whole entry): as above

## COc1ccc2ncc(F)c(CC[C@@]3(O)CO[C@@H]4[C@@H](NCc5cc6c(cn5)OCCO6)CO[C@@H]43)c2n1 [Compound 6, (3R, 3aS,6S,6aR)-6-(((2,3-dihydro-[1,4]dioxino[2,36-c]pyridin-7-yl)methyl)amnino)-3-(2-(3-fluoro-6-methoxy-1,5-naphthyridin-4-yl)ethyl)hexahydrofuro[3,2-b]furan-3-ol]
[1]; 3 μM
  % Inhibition Nav1.5 (peak current): 6.1%
[1]; 30 μM
  % Inhibition Nav1.5 (peak current): 16.7%
[1]; 100 μM
  % Inhibition Nav1.5 (peak current): 21.1%
[2]; 3 μM
  % Inhibition Nav1.5 Late (antagonist - inhibition of ATXII EC50 current): 4.3%
[2]; 30 μM
  % Inhibition Nav1.5 Late (antagonist - inhibition of ATXII EC50 current): 19.1%
[2]; 100 μM
  % Inhibition Nav1.5 Late (antagonist - inhibition of ATXII EC50 current): 50.9%
[3]; human plasma
  fraction unbound: 0.138
[3]; mouse plasma
  fraction unbound: 0.047
